# Biological target: T1, Thermotoga-derived TyrRS (Thermotoga maritima, UniProt Q9WYU8)
# T1 construct: The amplification products were each inserted into pET-28a to obtain plasmids for expression of respective AARSs; His tag (N); made in house; host or cells: Escherichia coli BL21 (DE3)
# T1 sequence (Q9WYU8 1-401): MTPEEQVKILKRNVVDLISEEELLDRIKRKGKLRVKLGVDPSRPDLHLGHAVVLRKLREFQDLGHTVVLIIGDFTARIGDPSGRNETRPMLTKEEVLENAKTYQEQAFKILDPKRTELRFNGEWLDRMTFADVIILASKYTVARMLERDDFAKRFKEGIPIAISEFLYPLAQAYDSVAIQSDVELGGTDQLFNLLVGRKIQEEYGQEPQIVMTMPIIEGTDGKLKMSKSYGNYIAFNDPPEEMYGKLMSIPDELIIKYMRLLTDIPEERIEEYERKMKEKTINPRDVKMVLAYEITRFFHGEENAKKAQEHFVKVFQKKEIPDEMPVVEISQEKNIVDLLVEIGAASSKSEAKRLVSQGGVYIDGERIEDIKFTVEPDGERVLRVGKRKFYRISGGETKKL
# Assay: Calibration curve for amino acid by coupled PPDK and LDH
# Format: biochemical, Thermotoga maritima MSB8 strain
# Details: Tyr 0 to 200 μM; hydroxylamine 200 mM; TyrRS 0.4 mg/ml (40 mU/ml); 30° C.
# Method: A test sample containing an amino acid as the measurement subject and a reaction mixture for quantifying amino acid having the following composition were mixed. The mixture was left standing at 30° C. to allow the AARS, PPDK, and LDH reactions to advance, and decrease of the absorbance at 340 nm was measured. The volume of the mixture was 200 μl, and after the reaction mixture was put into the wells of a 96-well microplate, the absorbance was measured with a microplate reader.
# Reaction mixture for quantifying amino acid: 20 mM Tris-HCl (pH 7.0), 10 mM MgCl2, 10 mM NH4Cl, 0.3 mM PEP, 0.3 mM NADH, 0.2 mM ATP, 0.2 mM AMP, 70 mU/ml PPDK, 50 U/ml LDH, and AARS (concentrations are final concentrations obtained after mixing with test sample)
# Calibration curves were prepared by using the AARS activity measurement method described in 8. and standard Cys, Lys, Ser, and Tyr solutions as test samples. The concentrations of the aforementioned amino acids were set so that the final concentrations thereof are in the range of 0 to 200 μM. The hydroxylamine concentration was 200 mM for the samples used for the Tyr calibration curve, or 1000 mM for the samples used for the Cys, Lys, and Ser calibration curves. The Thermotoga-derived CysRS, LysRS, SerRS, TyrRS, and the Thermus-derived TyrRS were added to the reaction mixture at final concentrations of 0.2 (7 mU/ml), 0.1 (10 mU/ml), 0.2 (8 mU/ml), 0.4 (40 mU/ml), and 0.1 mg/ml, respectively.
# Calibration curves could be similarly prepared when adding pyrophosphate instead of the aforementioned amino acids, but the inclinations of the Lys, Ser, and Tyr calibration curves (absorbance change per mM of substrate) were 80% or more of the inclination of the pyrophosphate calibration curve. […] The inclination of the Cys calibration curve was slightly smaller than those of the other calibration curves, and it is considered that this is because a part of cysteine in the test sample was converted into cystine by air oxidation, and the real concentration of cysteine was reduced.
smiles,measurement,value
"N[C@@H](Cc1ccc(O)cc1)C(=O)O [Tyr, L-tyrosine]",inclination of calibration curve relative to inclination of the pyrophosphate calibration curve,≥ 80%

# — patent US9708639B2, “Method for quantifying amino acids with pyrophosphate” (TOYAMA PREFECTURE, priority 2012, dated 2017)
